Reference: publication PMC12535377, “Synaptic and intrinsic plasticity mediated by CCK-type signaling coordinates behavioral changes during motivational state shifts” (Cell reports, 2025)
Read-outs that look alike come from different tables or passages of the source. Non-standard residues stand in square brackets, D forms with d. Residues, ends and D or L forms follow the SMILES beside them. sY = N[C@@H](Cc1ccc(OS(=O)(=O)O)cc1)C(=O)O

Columns and labels:
[1] = biological target: T1, apCCKR2 (Aplysia californica, UniProt A0ABM0ZX06); test: IP1 accumulation assay, apCCKR2 in CHO-K1 cells; type: cell-based; conditions: CHO-K1 cells transfected with receptor and promiscuous Gαq
T1 sequence (A0ABM0ZX06 1-377): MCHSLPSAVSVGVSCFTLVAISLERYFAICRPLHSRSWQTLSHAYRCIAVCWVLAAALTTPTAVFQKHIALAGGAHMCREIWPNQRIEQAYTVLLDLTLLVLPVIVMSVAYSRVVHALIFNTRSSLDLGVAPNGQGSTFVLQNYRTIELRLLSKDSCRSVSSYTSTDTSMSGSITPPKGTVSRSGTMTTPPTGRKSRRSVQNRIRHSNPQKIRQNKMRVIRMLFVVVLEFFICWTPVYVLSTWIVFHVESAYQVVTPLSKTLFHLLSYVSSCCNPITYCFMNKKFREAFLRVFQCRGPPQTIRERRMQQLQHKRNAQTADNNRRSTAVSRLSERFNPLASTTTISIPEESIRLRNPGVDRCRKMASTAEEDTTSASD
Procedure: (§1) We tested receptor activation using the IP1 (inositol monophosphate) accumulation assay that measures IP1 generated in the Gαq pathway (see STAR Methods).
(§2) CHO-K1 cells were cultured in F-12K medium (Gibco, 21127–022) with 10% fetal bovine serum at 37°C in 5% CO2. Before transfection, cells were grown in 35 mm diameter tissue culture-treated dishes to 85% confluence. For transfection, 1.5 μg apCCKR plasmids or control plasmids (in pcDNA3.1(+) vector) and 1.5 μg promiscuous Gαq-family protein (in pcDNA3.1(+) vector) were mixed with 200 μL Opti-MEM (Gibco, 11058021), and 8 μL Turbofect (Thermo Fisher Scientific, R0531). This promiscuous Gαq protein contains substitutions to increase promiscuity,[148] and could bind to most GPCRs, ensuring an IP1 response when a potential ligand binds to its specific GPCR, irrespective of the GPCR’s normal association with any specific Gα proteins. The DNA mixture was incubated at room temperature for 15 min and then added dropwise to the cells in F-12K medium with 10% FBS (no antibiotics), followed by incubation at 37°C in 5% CO2 overnight. The next day, cells were detached using trypsin and reseeded in white 96-well half-area tissue culture-treated plates (Corning, 3688) at a density of 20,000 cells per well in F-12K and 10% FBS, and incubated at 37°C in 5% CO2 overnight. Activation of putative apCCK or related receptor was detected by monitoring IP1 accumulation using IPOne Detection Kit (Cisbio, 62IPAPEB), as previously described.[64],[65],[141],[149],[150]
(§3) Dose-response curves and bar graphs for experimental data were plotted using Prism software (GraphPad version 8). Data are presented as mean ± SEM of at least three independent experiments, except that LogEC50 values reported in the main text are the mean ± standard deviation (SD) from at least three independent experiments. Statistical tests were performed using Prism software. They included Student’s t-test, one-way or two-way ANOVA, as appropriate. […] Electrophysiological recordings were digitized online using AxoScope software version 10.7 (Molecular Devices, LLC, Sunnyvale, CA) and were plotted by CorelDraw version 2018 (Corel Corp., Ottawa, Canada).

[2] = biological target: T2, apCCKR1 (Aplysia californica, UniProt A0ABM1AF30); test: IP1 accumulation assay, apCCKR1 in CHO-K1 cells; type: cell-based; conditions: CHO-K1 cells transfected with receptor and promiscuous Gαq
T2 sequence (A0ABM1AF30 1-261): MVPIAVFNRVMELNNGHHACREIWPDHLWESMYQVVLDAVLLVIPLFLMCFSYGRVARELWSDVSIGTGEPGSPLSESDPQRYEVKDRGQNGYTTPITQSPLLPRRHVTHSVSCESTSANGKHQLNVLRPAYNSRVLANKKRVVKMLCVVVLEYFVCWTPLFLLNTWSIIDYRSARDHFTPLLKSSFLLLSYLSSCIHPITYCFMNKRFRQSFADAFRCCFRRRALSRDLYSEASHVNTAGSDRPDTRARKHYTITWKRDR
Procedure: as §1, §2, §3

[3] = system: Aplysia californica; test: Feeding behavior (food intake) in intact animals after peptide injection; type: in vivo; conditions: for Behavioral effect (food intake), summary grade: Table S1 summary in words; for Food intake (seaweed consumed in a single meal): injection into hemocoel of apCCK solutions (10^-7 M or 10^-6 M) vs ASW, food-deprived animals
Excerpt: To explore the role of apCCKs as satiety signals in mollusks, we examined their effects on food intake. […] The remaining four forms had no impact (Figure S9). Moreover, [sY6, sY8]-apCCK1 slowed food consumption (Figure 2E), which could stem, in part, from a shift from ingestive to egestive patterns as the meal progressed. [sY6, sY8]-apCCK1 also extended the duration to consume one strip of seaweed compared to controls (Figure 2F), further mimicking natural satiety.
Behavioral experiments were conducted in two batches, each using animals from separate shipments. In the first batch (Figure 2), animals were larger, with an average body weight of 93.3 ± 4.8 g, and were food-deprived for 7 days prior to testing. In the second batch (Figure S9), animals were smaller (average weight: 70.6 ± 4.0 g) and were food-deprived for 5 days to account for their reduced size. In each experiment, two weight-matched animals were housed in separate round net cages (17 cm diameter and 17 cm height) that were placed in a 500 L tank filled with circulating aerated ASW (14°C–16°C). To ensure that the animals were responsive to food, they were first pretested with a small piece of seaweed. After this pretest, in each pair, one animal was injected (into the hemocoel using a syringe needle) with apCCKs freshly dissolved in 1.5 mL ASW, whereas the other was injected with 1.5 mL of ASW. Three minutes later, the feeding session commenced. Animals were hand-fed seaweed (Shirako, Tokyo, Japan) cut in 1 × 10 cm strips, weighing ~0.1 g, increasing 10-fold when hydrated. This hand-feeding approach has been used in prior study of Aplysia feeding behavior.[146],[147] The consumed seaweed amount was converted to hydrated weight and normalized to the animal’s body weight. Each strip of seaweed was delivered to the mouth area with forceps. Feeding was terminated after 1 h or when animals stopped ingesting seaweed for 3 min.

[4] = log[EC50] with negative sign, mean ± SD, at least three independent experiments, SD, read-out: apCCKR2: log[EC50] (converted)
[5] = log[EC50] with negative sign, mean ± SD, at least three independent experiments, SD, read-out: apCCKR1: log[EC50] (converted)
[6] = average of at least three independent experiments, read-out: apCCKR2: EC50
[7] = average of at least three independent experiments, read-out: apCCKR1: EC50

| Compound | EC50 [1, 4] [µM] | EC50 [2, 5] [µM] | Behavioral effect (food intake), summary grade [3] | Food intake (seaweed consumed in a single meal) [3] | EC50 [1, 6] [µM] | EC50 [2, 7] [µM] |
| --- | --- | --- | --- | --- | --- | --- |
| CC[C@H](C)[C@H](NC(=O)CNC(=O)[C@H](Cc1ccc(OS(=O)(=O)O)cc1)NC(=O)[C@H](CC(=O)O)NC(=O)CNC(=O)[C@H](Cc1ccc(OS(=O)(=O)O)cc1)NC(=O)[C@@H](N)CO)C(=O)NCC(=O)NCC(=O)NCC(=O)N[C@@H](CCCNC(=N)N)C(=O)N[C@@H](Cc1ccccc1)C(N)=O [[sY2, sY5]-apCCK2] (H-S[sY]GD[sY]GIGGGRF-NH2) | 0.355 | 0.331 | Weak | significant but weaker effects |  |  |
| CC[C@H](C)[C@H](NC(=O)CNC(=O)[C@H](Cc1ccc(O)cc1)NC(=O)[C@H](CC(=O)O)NC(=O)CNC(=O)[C@H](Cc1ccc(OS(=O)(=O)O)cc1)NC(=O)[C@@H](N)CO)C(=O)NCC(=O)NCC(=O)NCC(=O)N[C@@H](CCCNC(=N)N)C(=O)N[C@@H](Cc1ccccc1)C(N)=O [[sY2]-apCCK2] (H-S[sY]GDYGIGGGRF-NH2) | 1.1 |  | No effect | did not influence feeding | 1.4 | > 10 |
| CC[C@H](C)[C@H](NC(=O)CNC(=O)[C@H](Cc1ccc(OS(=O)(=O)O)cc1)NC(=O)[C@H](CC(=O)O)NC(=O)CNC(=O)[C@H](Cc1ccc(O)cc1)NC(=O)[C@@H](N)CO)C(=O)NCC(=O)NCC(=O)NCC(=O)N[C@@H](CCCNC(=N)N)C(=O)N[C@@H](Cc1ccccc1)C(N)=O [[sY5]-apCCK2] (H-SYGD[sY]GIGGGRF-NH2) | 0.0389 | 0.851 | Moderate | significant but weaker effects | 0.049 |  |
| H-SYGDYGIGGGRF-NH2 [apCCK2] |  |  | No effect | did not influence feeding | > 10 | > 10 |
